From PubChem BioAssay AID1033 (Sanford-Burnham Center for Chemical Genomics, 2008)
Active and inactive are the calls of the source. No rule for the calls is given here.

Molecular target: Chaperone protein DnaK (Escherichia coli (strain K12)) (UniProt P0A6Y8)
Test: binders of DnaK substrate-binding domain, biophysical, NMR, chaperone (AID 1033)
Details: Purified DnaK SBD, NMR ligand binding

Chain of Chaperone protein DnaK (Escherichia coli (strain K12)) (P0A6Y8 whole entry, looked up, the tested form may be a part): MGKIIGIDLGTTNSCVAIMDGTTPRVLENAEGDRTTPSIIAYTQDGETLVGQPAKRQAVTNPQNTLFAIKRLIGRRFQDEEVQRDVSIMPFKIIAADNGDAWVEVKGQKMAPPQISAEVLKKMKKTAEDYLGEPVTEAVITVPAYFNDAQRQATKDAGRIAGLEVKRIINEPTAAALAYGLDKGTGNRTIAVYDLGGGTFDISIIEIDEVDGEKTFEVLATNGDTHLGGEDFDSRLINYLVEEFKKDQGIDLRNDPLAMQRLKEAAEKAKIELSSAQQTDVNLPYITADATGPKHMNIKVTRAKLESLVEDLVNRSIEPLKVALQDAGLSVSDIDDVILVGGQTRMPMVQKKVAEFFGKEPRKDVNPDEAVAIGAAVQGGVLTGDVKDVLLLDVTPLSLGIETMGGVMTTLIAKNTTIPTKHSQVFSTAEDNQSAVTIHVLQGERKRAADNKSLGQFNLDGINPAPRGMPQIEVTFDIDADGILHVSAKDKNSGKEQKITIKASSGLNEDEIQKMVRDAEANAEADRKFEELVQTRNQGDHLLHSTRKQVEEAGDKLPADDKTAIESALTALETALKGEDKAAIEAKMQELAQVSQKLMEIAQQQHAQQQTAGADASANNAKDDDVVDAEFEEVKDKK

SMILES | Kd
O=C(NCC1CCNCC1)c1ccccn1 | > 4 mM (inactive)
OCc1cccc2c1OCCO2 | > 4 mM (inactive)
CNC(=O)c1cc(C)c(-c2ccccc2)s1 | > 4 mM (inactive)
COc1c(-c2coc3cc4c(cc3c2=O)CC(OC(C)=O)C(C)(C)O4)ccc2c1C=CC(C)(C)O2 (stereo unspecified) | > 4 mM (inactive)
NC(=O)C1CCN(C(=O)c2ccccc2)CC1 | > 4 mM (inactive)
OCCNc1ccccn1 | > 4 mM (inactive)
COc1ccc(-c2ccc(SCC(N)=O)nn2)cc1 | > 4 mM (inactive)
Cc1ccc2[nH]c3nc(=S)[nH]nc3c2c1 | > 4 mM (inactive)
CC1(C)C(=O)[C@@H]2C[C@@]3(O)C4=CC(=O)O[C@@H](c5ccoc5)[C@]4(C)CCC3C(C)(C2=O)[C@H]1CC(=O)O (stereo partly specified) | > 4 mM (inactive)
NC1=NC(=O)C(CC(=O)Nc2ccccc2F)S1 (stereo unspecified) | > 4 mM (inactive)
CN1CCCCC1c1ccc(-c2cccnc2)nc1 (stereo unspecified) | > 4 mM (inactive)
O=C1NC(=O)C(c2ccccc2)C(=O)N1 | > 4 mM (inactive)
Nc1cccnc1Oc1ccc(F)cc1F | > 4 mM (inactive)
O=C(Nc1ccon1)c1csc2c1CCCC2 | > 4 mM (inactive)
Cc1ccc(SCc2cc(=O)n3[nH]c(C)nc3n2)cc1 | > 4 mM (inactive)
O=C1O[C@H](C(O)CO)C(O)=C1O (stereo partly specified) | > 4 mM (inactive)
CC(=O)NC(=S)Nc1ccccc1C(N)=O | > 4 mM (inactive)
NC(=O)CNC(=O)c1ccc2ccccc2n1 | > 4 mM (inactive)
Cc1cc(C)cc(C(=O)n2cnnc2N)c1 | > 4 mM (inactive)
O=c1c2ccccc2oc2ccccc12 | > 4 mM (inactive)
CC(C)NC(=O)c1nc2ccccc2s1 | > 4 mM (inactive)
CC1O[C@@H](Oc2c(-c3ccc(O)c(O)c3)oc3cc(O)cc(O)c3c2=O)[C@H](O)[C@H](O)[C@H]1O (stereo partly specified) | > 4 mM (inactive)
COC(=O)CSc1nc(N)cc(=O)[nH]1 | > 4 mM (inactive)
COc1ccc(C(=O)CC(=O)O)c2c1C=CC(C)(C)O2 | > 4 mM (inactive)

SMILES | Kd
CC(C)=CCc1c(O)cc2occ(-c3ccc4c(c3)OCO4)c(=O)c2c1O | > 4 mM (inactive)
S=c1ccc(N2CCCCC2)n[nH]1 | > 4 mM (inactive)
CC(O)C(=O)N/N=C/c1cccs1 (stereo unspecified) | > 4 mM (inactive)
CC(=O)Nc1ccc2c(c1)CCC2=O | > 4 mM (inactive)
O=C(O)CCCc1nc2ccccc2s1 | > 4 mM (inactive)
CC1(C)O[C@H]2CC(=O)OC[C@]23[C@H]2CC[C@@]4(C)[C@H](c5ccoc5)OC(=O)[C@H]5O[C@]54[C@]2(C)C(=O)C[C@@H]13 | > 4 mM (inactive)
NC(=O)C1CCN(C(=S)c2ccccc2)CC1 | > 4 mM (inactive)
Cc1cccc(N2C(=O)CCC2=O)n1 | > 4 mM (inactive)
O=C(CN1C(=O)CCC1=O)c1ccccc1 | > 4 mM (inactive)
O=C(c1cccc(-n2cnnn2)c1)N1CCOCC1 | > 4 mM (inactive)
O=C1CCC(C(=O)NCc2cccnc2)N1 (stereo unspecified) | > 4 mM (inactive)
CC1=NN(c2ccc(C)cc2)C(=O)C1 | > 4 mM (inactive)
O=C(O)CC1C(=O)NCCN1Cc1cccs1 (stereo unspecified) | > 4 mM (inactive)
O=C(NC1CCS(=O)(=O)C1)c1cccs1 (stereo unspecified) | > 4 mM (inactive)
O=C1CC(=O)N(c2ccccc2F)C(=S)N1 | > 4 mM (inactive)
O=C(c1ccc(Cl)c(F)c1F)N1CCCC1 | > 4 mM (inactive)
NC(=O)c1ccccc1NC(=O)C1CC1 | > 4 mM (inactive)
O=C1C=CC(=O)N1c1ccccc1O | > 4 mM (inactive)
NC(=O)CN1C(=O)c2cccc3cccc1c23 | > 4 mM (inactive)
Cc1ccc2c(c1)=C(c1sc(N)nc1O)C(=O)N=2 | > 4 mM (inactive)
O=C(NN1CCOCC1)c1cccs1 | > 4 mM (inactive)
Cc1nc(-c2ccccc2)sc1C(N)=O | > 4 mM (inactive)
O=c1nc(C(F)(F)F)nc2ccccn12 | > 4 mM (inactive)
CCOC(=O)c1csc(C2COc3ccccc3O2)n1 (stereo unspecified) | > 4 mM (inactive)

SMILES | Kd
Nc1cccc2nonc12 | > 4 mM (inactive)
C=CCCCCCCCCCCCC(O)CC(O)COC(C)=O (stereo unspecified) | > 4 mM (inactive)
CCC(CCC(C)[C@H]1CCC2C3CC=C4C[C@@H](O)CC[C@]4(C)C3CC[C@@]21C)C(C)C (stereo partly specified) | > 4 mM (inactive)
CC(=O)c1cccc(NS(=O)(=O)N2CCCCC2)c1 | > 4 mM (inactive)
CN(C)c1ccc(/C=C2/NC(=S)NC2=O)cc1 | > 4 mM (inactive)
O=C(O)c1ccc2c(c1)OCCCO2 | > 4 mM (inactive)
C/C=C(/C)C(=O)O[C@@H]1[C@H](OC(C)=O)[C@@]2(CO)C(CC1(C)C)C1=CCC3[C@@]4(C)CC[C@H](O[C@@H]5O[C@H](C(=O)O)[C@@H](O[C@@H]6O[C@H](CO)[C@@H](O)[C@H](O)[C@H]6O)[C@H](O)[C@H]5O[C@@H]5O[C@H](CO)[C@@H](O)[C@H](O)[C@H]5O)[C@](C)(CO)C4CC[C@@]3(C)[C@]1(C)C[C@H]2O (stereo partly specified) | > 4 mM (inactive)
Cc1ccc(C)n1NC(=O)c1cccs1 | > 4 mM (inactive)
CCc1nnsc1C(=O)Nc1nccs1 | > 4 mM (inactive)
COC(=O)C1=C(C)N(Cc2ccco2)C(=O)C1 | > 4 mM (inactive)
O=C(Nc1ccon1)c1csc2ccccc12 | > 4 mM (inactive)
Cc1n[nH]c(=S)n(/N=C/c2cccs2)c1=O | > 4 mM (inactive)
Cc1cccc(NS(=O)(=O)c2cccs2)n1 | > 4 mM (inactive)
CC(C)c1ccc(NC(=O)C(N)=O)cc1 | > 4 mM (inactive)
Cc1occc1C(=O)Nc1cc(C(C)(C)C)on1 | > 4 mM (inactive)
CCOC(=O)c1c(C)nc2c(C#N)cnn2c1C | > 4 mM (inactive)
O=C(Nc1ccccc1)Nc1ccccc1 | > 4 mM (inactive)
O=C1C(=O)N(CNc2ncccn2)c2ccccc21 | > 4 mM (inactive)
Cc1nnc(N2CCN(c3ccccc3)CC2)[nH]c1=O | > 4 mM (inactive)
O=C(O)CCCCCCCCCCCCC1C=CCC1 (stereo unspecified) | > 4 mM (inactive)
Cn1c(NCc2ccccc2O)nc2ccccc21 | > 4 mM (inactive)
CC(C)=CCc1c2c(c(O)c3c(=O)c(O)c(-c4ccccc4)oc13)C=CC(C)(C)O2 | > 4 mM (inactive)
COc1cc(-c2coc3cc(OC)c(OC)c(OC)c3c2=O)cc(OC)c1OC | > 4 mM (inactive)
CCSc1nc(=S)n(CC)c(C)c1C(C)=O | > 4 mM (inactive)

SMILES | Kd
COc1ccccc1NC(=O)c1ccc(C)s1 | > 4 mM (inactive)
CN(C(=O)c1cc2cccnc2n(C)c1=O)c1ccccc1 | > 4 mM (inactive)
Cc1oc2nc3c(c(=O)[nH]c(=O)n3C)n2c1C | > 4 mM (inactive)
COC(=O)C[C@H]1C2(C)CC34OC5(C)O[C@@]6([C@H](OC)C(OC(=O)C(C)C)[C@]7(C)C(/C(=C(/OC)C(C)C)C(=O)O[C@H]7c7ccoc7)[C@@]6(O5)[C@H](OC)[C@@]3(OC)C2OC(C)=O)[C@]14C (stereo partly specified) | > 4 mM (inactive)
C/C(=N\NC(N)=S)C(=O)O | > 4 mM (inactive)
CC(=O)Nc1ccc(-c2ccc3nncn3n2)cc1 | > 4 mM (inactive)
Nc1cccc(S(=O)(=O)N2CCOCC2)c1 | > 4 mM (inactive)
O=c1c(-c2cccs2)[n+]([O-])c2ccccc2n1O | > 4 mM (inactive)
C[C@@H](N)[C@@H](O)c1ccccc1 | > 4 mM (inactive)
Cn1c(O)c(/C=C2\C=CC=N2)c(=O)[nH]c1=S | > 4 mM (inactive)
Nc1ccc(N2CCOCC2)cc1 | > 4 mM (inactive)
O=C(Nc1cccnc1)N1CCOCC1 | > 4 mM (inactive)
CC1(C)C=Cc2c(cc3occ(-c4ccc5c(c4)OCO5)c(=O)c3c2O)O1 | > 4 mM (inactive)
COc1ccc(Cl)cc1NC(=O)C(N)=O | > 4 mM (inactive)
Cc1csc(CCc2nc(C)cs2)n1 | > 4 mM (inactive)
NS(=O)(=O)c1ccc2c3c(cccc13)C(=O)N2 | > 4 mM (inactive)
O=C(O)C1CCN(c2ccc(C(F)(F)F)cn2)CC1 | > 4 mM (inactive)
Cc1cc(=O)n(CCc2ccccc2)c(O)c1C#N | > 4 mM (inactive)
O=C(O)c1ccc2c(c1)OCCO2 | > 4 mM (inactive)
CC(C)CCCC(C)[C@H]1CCC2C3CC=C4C[C@@H](O)CC[C@]4(C)C3CC[C@@]21C (stereo partly specified) | > 4 mM (inactive)
Cc1cc(=O)c2ccccc2n1CC(N)=O | > 4 mM (inactive)
O=S1(=O)CCC(Nc2ccccc2)C1 (stereo unspecified) | > 4 mM (inactive)
Cc1n[nH]c(=O)c2ncn(C)c12 | > 4 mM (inactive)
O=C1NC(=O)C(C(=S)Nc2ccccc2)C(=O)N1 | > 4 mM (inactive)

SMILES | Kd
S=c1[nH]ncn1-c1ccccc1 | > 4 mM (inactive)
CN(C)C(=O)CSc1cccc2cccnc12 | > 4 mM (inactive)
COc1ccc2c(c1)OC[C@@H](Cc1ccc(OC)c(OC)c1)[C@@H]2O | > 4 mM (inactive)
NCc1nc2ccccc2s1 | > 4 mM (inactive)
O=c1nc(NCc2ccco2)sc2ncccc12 | > 4 mM (inactive)
CCCSc1nnc2[nH]c(=O)cc(N)n12 | > 4 mM (inactive)
O=C(O)c1cncc(-c2cccs2)c1 | > 4 mM (inactive)
c1ccc(-n2nnnc2Oc2cccc3cccnc23)cc1 | > 4 mM (inactive)
O=C1CCC(=O)N1c1ccc(O)cc1 | > 4 mM (inactive)
Nc1nncn1C(=O)c1ccccc1Cl | > 4 mM (inactive)
CCOC(=O)C1C(=O)C2CCN1CC2 (stereo unspecified) | > 4 mM (inactive)
Cc1ccccc1NC(=O)c1ocnc1C | > 4 mM (inactive)
Cc1cc(=O)n2[nH]c(N)nc2n1 | > 4 mM (inactive)
O=C(Nc1ccon1)c1ccccc1Cl | > 4 mM (inactive)
Cc1occc1C(=O)NC1CCN(C)CC1 | > 4 mM (inactive)
O=P1(O)c2ccccc2Nc2ccccc21 | > 4 mM (inactive)
C=CCc1cc(C(=O)N2CCCCC2)ccc1O | > 4 mM (inactive)
O=C(O)C1CC(C2CCCCN2)CN2CCCCC12 (stereo unspecified) | > 4 mM (inactive)
CCNC(=S)N1CCC(C(N)=O)CC1 | > 4 mM (inactive)
Cc1cc(SCC(=O)c2ccccc2)nc(=O)[nH]1 | > 4 mM (inactive)
